# How the values were obtained:
# bluegrass = test: Test D preemergence; type: in vivo, Poa annua; settings: Poa annua, pre-emergence
# How it was run: (§1)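 Visual rating vs untreated controls, 0 = no effect, 100 = complete control, taken 7–21 d after treatment. Pre: silt loam soil. Post: potting medium, plants 2–18 cm, 1–4 leaf. Formulation: non-phytotoxic solvent mix + surfactant.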
# bromegrass, downy = test: Test D preemergence; type: in vivo, Bromus tectorum; settings: Bromus tectorum, pre-emergence
# How it was run: as §1
# canarygrass = test: Test D postemergence; type: in vivo, Phalaris minor; settings: Phalaris minor, post-emergence
# How it was run: as §1
# oilseed rape [1] = test: Test D preemergence; type: in vivo, Brassica napus; settings: Brassica napus, pre-emergence
# How it was run: as §1
# oilseed rape [2] = test: Test D postemergence; type: in vivo, Brassica napus; settings: Brassica napus, post-emergence
# How it was run: as §1
# windgrass = test: Test D postemergence; type: in vivo, Apera spica-venti; settings: Apera spica-venti, post-emergence
# How it was run: as §1
# field violet = test: Test D preemergence; type: in vivo, Viola arvensis; settings: Viola arvensis, pre-emergence
# How it was run: as §1
# large (Lg) crabgrass = test: Test F preemergence; type: in vivo, Digitaria sanguinalis; settings: 21 days, scale 0 to 100
# How it was run: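 Loam/sand mix; preemergence spray, non-phytotoxic solvent + surfactant; greenhouse 21 d; visual injury vs untreated, 0 (none)–100 (complete control).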
# signalgrass = test: Test F preemergence; type: in vivo, Brachiaria platyphylla; settings: 21 days, scale 0 to 100
# Description: (§2) Seeds of plant species selected from bermudagrass (Cynodon dactylon), surinam grass (Brachiaria decumbens), large (Lg) crabgrass (Digitaria sanguinalis), crabgrass, naked (naked crabgrass, Digitaria nuda), foxtail, green (green foxtail, Setaria viridis), johnsongrass (Sorghum halepense), kochia (Kochia scoparia), morningglory (pitted morningglory, Ipomoea lacunosa), nutsedge, purple (purple nutsedge, Cyperus rotundus), ragweed (common ragweed, Ambrosia elatior), mustard, black (black mustard, Brassica nigra), guineagrass (Panicum maximum), dallisgrass (Paspalum dilatatum), barnyardgrass (Echinochloa crus-galli), sandbur (southern sandbur, Cenchrus echinatus), sowthistle (common sowthistle, Sonchus oleraceous), Italian ryegrass (Lolium multiflorum), signalgrass (broadleaf signalgrass, Brachiaria platyphylla), dayflower (Virginia (VA) dayflower, Commelina virginica), bluegrass (annual bluegrass, Poa annua), quackgrass (Elytrigia repens), mallow (common mallow, Malva sylvestris), buckwheat, wild (wild buckwheat, Polygonum convolvulus), leafy spurge (Euphorbia esula), chickweed (common chickweed, Stellaria media), wild poinsettia (Euphorbia heterophylla), and pigweed (Amaranthus retroflexus) were planted into a blend of loam soil and sand and treated preemergence with test chemicals formulated in a non-phytotoxic solvent mixture which included a surfactant.
# (§3) Treated plants and controls were maintained in a greenhouse for 21 days, after which time all species were compared to controls and visually evaluated. Plant response ratings, summarized in Table F, are based on a scale of 0 to 100 where 0 is no effect and 100 is complete control. A dash (-) response means no test result.
# pigweed = test: Test F preemergence; type: in vivo, Amaranthus retroflexus; settings: 21 days, scale 0 to 100
# Description: as §2, §3
# wild oat = test: Test D preemergence; type: in vivo, Avena fatua; settings: Avena fatua, pre-emergence
# How it was run: as §1
# wild buckwheat = test: Test D preemergence; type: in vivo, Polygonum convolvulus; settings: Fallopia convolvulus, pre-emergence
# How it was run: as §1
structure (smiles),measurement,setting,value
"N#Cc1cccc(Oc2ncc(Cl)cn2)c1-n1cc(OCC(F)(F)F)cn1 [Compound 274, 3-[(5-chloro-2-pyrimidinyl)oxy]-2-[4-(2,2,2-trifluoroethoxy)-1H-pyrazol-1-yl]benzonitrile]",pest or weed control at 16 g/ha,"bluegrass; 16 g ai/ha, scale 0 (no effect) to 100 (complete control), read-out: Plant response rating, Bluegrass",0%
same,pest or weed control at 31 g/ha,"bluegrass; 31 g ai/ha, scale 0-100, read-out: Plant response rating, Bluegrass",5%
same,pest or weed control at 62 g/ha,"bluegrass; 62 g ai/ha, scale 0-100, read-out: Plant response rating, Bluegrass",30%
same,pest or weed control at 125 g/ha,"bluegrass; 125 g ai/ha, scale 0-100, read-out: Plant response rating, Bluegrass",70%
same,pest or weed control at 16 g/ha,"bromegrass, downy; 16 g ai/ha, scale 0 (no effect) to 100 (complete control), read-out: Plant response rating, Bromegrass, Downy",0%
same,pest or weed control at 31 g/ha,"bromegrass, downy; 31 g ai/ha, scale 0-100, read-out: Plant response rating, Bromegrass, Downy",5%
same,pest or weed control at 62 g/ha,"bromegrass, downy; 62 g ai/ha, scale 0-100, read-out: Plant response rating, Bromegrass, Downy",5%
same,pest or weed control at 125 g/ha,"bromegrass, downy; 125 g ai/ha, scale 0-100, read-out: Plant response rating, Bromegrass, Downy",35%
same,pest or weed control at 16 g/ha,"canarygrass; 16 g ai/ha, scale 0-100, read-out: Plant response rating, Canarygrass",15%
same,pest or weed control at 31 g/ha,"canarygrass; 31 g ai/ha, scale 0 to 100 (0 no effect, 100 complete control), read-out: Plant response rating, Canarygrass",20%
same,pest or weed control at 62 g/ha,"canarygrass; 62 g ai/ha, scale 0 to 100 (0 no effect, 100 complete control), read-out: Plant response rating, Canarygrass",25%
same,pest or weed control at 125 g/ha,"canarygrass; 125 g ai/ha, scale 0 to 100 (0 no effect, 100 complete control), read-out: Plant response rating, Canarygrass",30%
same,plant injury at 16 g/ha,"oilseed rape [1]; 16 g ai/ha, scale 0 (no effect) to 100 (complete control), read-out: Plant response rating, Oilseed Rape",35%
same,plant injury at 31 g/ha,"oilseed rape [1]; 31 g ai/ha, scale 0-100, read-out: Plant response rating, Oilseed Rape",30%
same,plant injury at 62 g/ha,"oilseed rape [1]; 62 g ai/ha, scale 0-100, read-out: Plant response rating, Oilseed Rape",65%
same,plant injury at 125 g/ha,"oilseed rape [1]; 125 g ai/ha, scale 0-100, read-out: Plant response rating, Oilseed Rape",75%
same,plant injury at 16 g/ha,"oilseed rape [2]; 16 g ai/ha, scale 0-100, read-out: Plant response rating, Oilseed Rape",40%
same,plant injury at 31 g/ha,"oilseed rape [2]; 31 g ai/ha, scale 0 to 100 (0 no effect, 100 complete control), read-out: Plant response rating, Oilseed Rape",55%
same,plant injury at 62 g/ha,"oilseed rape [2]; 62 g ai/ha, scale 0 to 100 (0 no effect, 100 complete control), read-out: Plant response rating, Oilseed Rape",65%
same,plant injury at 125 g/ha,"oilseed rape [2]; 125 g ai/ha, scale 0 to 100 (0 no effect, 100 complete control), read-out: Plant response rating, Oilseed Rape",75%
same,pest or weed control at 16 g/ha,"windgrass; 16 g ai/ha, scale 0-100, read-out: Plant response rating, Windgrass",15%
same,pest or weed control at 31 g/ha,"windgrass; 31 g ai/ha, scale 0 to 100 (0 no effect, 100 complete control), read-out: Plant response rating, Windgrass",25%
same,pest or weed control at 62 g/ha,"windgrass; 62 g ai/ha, scale 0 to 100 (0 no effect, 100 complete control), read-out: Plant response rating, Windgrass",35%
same,pest or weed control at 125 g/ha,"windgrass; 125 g ai/ha, scale 0 to 100 (0 no effect, 100 complete control), read-out: Plant response rating, Windgrass",35%
same,pest or weed control at 16 g/ha,"field violet; 16 g ai/ha, scale 0 (no effect) to 100 (complete control), read-out: Plant response rating, Field Violet",75%
same,pest or weed control at 31 g/ha,"field violet; 31 g ai/ha, scale 0-100, read-out: Plant response rating, Field Violet",100%
same,pest or weed control at 62 g/ha,"field violet; 62 g ai/ha, scale 0-100, read-out: Plant response rating, Field Violet",100%
same,pest or weed control at 125 g/ha,"field violet; 125 g ai/ha, scale 0-100, read-out: Plant response rating, Field Violet",100%
same,"Plant response rating, Crabgrass, Large",large (Lg) crabgrass; 16 g ai/ha,100
same,"Plant response rating, Crabgrass, Large",large (Lg) crabgrass; 31 g ai/ha,100
same,"Plant response rating, Crabgrass, Large",large (Lg) crabgrass; 62 g ai/ha,100
same,"Plant response rating, Crabgrass, Large",large (Lg) crabgrass; 125 g ai/ha,100
same,"Plant response rating, Crabgrass, Large",large (Lg) crabgrass; 250 g ai/ha,100
same,"Plant response rating, Signalgrass",signalgrass; 16 g ai/ha,75
same,"Plant response rating, Signalgrass",signalgrass; 31 g ai/ha,70
same,"Plant response rating, Signalgrass",signalgrass; 62 g ai/ha,100
same,"Plant response rating, Signalgrass",signalgrass; 125 g ai/ha,100
same,"Plant response rating, Signalgrass",signalgrass; 250 g ai/ha,100
same,"Plant response rating, Pigweed",pigweed; 16 g ai/ha,100
same,"Plant response rating, Pigweed",pigweed; 31 g ai/ha,100
same,"Plant response rating, Pigweed",pigweed; 62 g ai/ha,100
same,"Plant response rating, Pigweed",pigweed; 125 g ai/ha,100
same,"Plant response rating, Pigweed",pigweed; 250 g ai/ha,100
same,pest or weed control at 16 g/ha,"wild oat; 16 g ai/ha, scale 0 (no effect) to 100 (complete control), read-out: Plant response rating, Oat, Wild",0%
same,pest or weed control at 31 g/ha,"wild oat; 31 g ai/ha, scale 0-100, read-out: Plant response rating, Oat, Wild",0%
same,pest or weed control at 62 g/ha,"wild oat; 62 g ai/ha, scale 0-100, read-out: Plant response rating, Oat, Wild",15%
same,pest or weed control at 125 g/ha,"wild oat; 125 g ai/ha, scale 0-100, read-out: Plant response rating, Oat, Wild",25%
same,pest or weed control at 16 g/ha,"wild buckwheat; 16 g ai/ha, scale 0 (no effect) to 100 (complete control), read-out: Plant response rating, Buckwheat, Wild",10%
same,pest or weed control at 31 g/ha,"wild buckwheat; 31 g ai/ha, scale 0-100, read-out: Plant response rating, Buckwheat, Wild",100%
same,pest or weed control at 62 g/ha,"wild buckwheat; 62 g ai/ha, scale 0-100, read-out: Plant response rating, Buckwheat, Wild",100%
same,pest or weed control at 125 g/ha,"wild buckwheat; 125 g ai/ha, scale 0-100, read-out: Plant response rating, Buckwheat, Wild",100%

# From patent publication US9695155B2, “Herbicidal substituted pyrimidinyloxy benzene compounds” (E. I. DU PONT DE NEMOURS AND COMPANY, priority 2013, dated 2017)
